Laboratory results reported in ChEMBL document CHEMBL1687756 (Antimicrob Agents Chemother, 2010).

What was measured:
[1] = Cmax in Beagle dog at 5 mg/kg, sc after 176 days; format: ADME, organism-based, Canis lupus familiaris; parameters: dose 5 mg/kg, route subcutaneous; details: in vivo
[2] = Ratio of drug level in lymph node mandibular to plasma in Beagle dog at 5 mg/kg, sc after 6 months; format: ADME, organism-based, Canis lupus familiaris; parameters: dose 5 mg/kg, route subcutaneous
[3] = Drug level in male Beagle dog thymus at 400 mg/kg, sc after 1 month; format: ADME, organism-based, Canis lupus familiaris; parameters: dose 400 mg/kg, route subcutaneous; details: read-out: Drug uptake
[4] = Drug level in Beagle dog muscle at non-injected site at 5 mg/kg, sc after 6 months; format: ADME, organism-based, Canis lupus familiaris, Muscle tissue; parameters: dose 5 mg/kg, route subcutaneous; details: read-out: Drug uptake
[5] = Ratio of drug level in spleen to plasma in male Beagle dog at 400 mg/kg, sc after 3 months; format: ADME, organism-based, Canis lupus familiaris; parameters: dose 400 mg/kg, route subcutaneous
[6] = Cmax in Beagle dog at 5 mg/kg administered intramuscularly after 176 days; format: ADME, organism-based, Canis lupus familiaris; parameters: dose 5 mg/kg, route intramuscular; details: in vivo, im
[7] = Cmax in male dog at 200 mg, sc after 29 days; details: in vivo
[8] = Ratio of drug level in liver to plasma in Beagle dog at 5 mg/kg, sc after 6 months; format: ADME, organism-based, Canis lupus familiaris; parameters: dose 5 mg/kg, route subcutaneous
[9] = Ratio of drug level in spleen to plasma in female Beagle dog at 400 mg/kg administered intramuscularly after 3 months; format: ADME, organism-based, Canis lupus familiaris; parameters: dose 400 mg/kg, route intramuscular; details: im
[10] = Drug level in Beagle dog skin at injected site at 5 mg/kg administered intramuscularly after 3 months; format: ADME, organism-based, Canis lupus familiaris, Zone of skin; parameters: dose 5 mg/kg, route intramuscular; details: im, read-out: Drug uptake
[11] = Drug level in Beagle dog skin at non-injected site at 5 mg/kg, sc after 6 months; format: ADME, organism-based, Canis lupus familiaris, Zone of skin; parameters: dose 5 mg/kg, route subcutaneous; details: read-out: Drug uptake
[12] = Drug level in Beagle dog spleen at 5 mg/kg administered intramuscularly after 3 months; format: ADME, organism-based, Canis lupus familiaris; parameters: dose 5 mg/kg, route intramuscular; details: im, read-out: Drug uptake
[13] = Cmax in female dog at 200 mg, sc after 85 days; details: in vivo
[14] = AUC (0 to last) in Beagle dog at 5 mg/kg, sc after 184 days; format: ADME, organism-based, Canis lupus familiaris; parameters: time 0 - last, dose 5 mg/kg, route subcutaneous; details: plasma
[15] = Drug level in Beagle dog muscle at injected site at 5 mg/kg, sc after 3 months; format: ADME, organism-based, Canis lupus familiaris, Muscle tissue; parameters: dose 5 mg/kg, route subcutaneous; details: read-out: Drug uptake
[16] = Ratio of drug level in thymus to plasma in male Beagle dog at 200 mg/kg, sc after 3 months; format: ADME, organism-based, Canis lupus familiaris; parameters: dose 200 mg/kg, route subcutaneous
[17] = Plasma concentration in female Beagle dog at 200 mg/kg, sc after 3 months; format: ADME, organism-based, Canis lupus familiaris; parameters: dose 200 mg/kg, route subcutaneous
[18] = Plasma concentration in Beagle dog at 5 mg/kg, sc after 3 months; format: ADME, organism-based, Canis lupus familiaris; parameters: dose 5 mg/kg, route subcutaneous
[19] = Ratio of drug level in lymph node iliac to plasma in Beagle dog at 5 mg/kg, sc after 6 months; format: ADME, organism-based, Canis lupus familiaris; parameters: dose 5 mg/kg, route subcutaneous
[20] = Drug level in Beagle dog liver at 5 mg/kg, sc after 3 months; format: ADME, organism-based, Canis lupus familiaris; parameters: dose 5 mg/kg, route subcutaneous; details: read-out: Drug uptake
[21] = Drug level in Beagle dog lymph node axillar at 5 mg/kg administered intramuscularly after 6 months; format: ADME, organism-based, Canis lupus familiaris; parameters: dose 5 mg/kg, route intramuscular; details: axillary lymph node, im, read-out: Drug uptake
[22] = Ratio of drug level in spleen to plasma in female Beagle dog at 400 mg/kg, sc after 3 months; format: ADME, organism-based, Canis lupus familiaris; parameters: dose 400 mg/kg, route subcutaneous
[23] = Cmax in Beagle dog at 5 mg/kg administered intramuscularly after 184 days; format: ADME, organism-based, Canis lupus familiaris; parameters: dose 5 mg/kg, route intramuscular; details: in vivo, im
[24] = Plasma concentration in female Beagle dog at 400 mg/kg, sc after 3 months; format: ADME, organism-based, Canis lupus familiaris; parameters: dose 400 mg/kg, route subcutaneous
[25] = Ratio of drug level in thymus to plasma in male Beagle dog at 400 mg/kg administered intramuscularly after 3 months; format: ADME, organism-based, Canis lupus familiaris; parameters: dose 400 mg/kg, route intramuscular; details: im
[26] = Drug level in female Beagle dog spleen at 400 mg/kg administered intramuscularly after 3 months; format: ADME, organism-based, Canis lupus familiaris; parameters: dose 400 mg/kg, route intramuscular; details: im, read-out: Drug uptake
[27] = Tmax in female dog at 400 mg administered intramuscularly after 85 days; details: in vivo, im
[28] = AUC (0 to last) in male dog at 400 mg administered intramuscularly after 85 days; details: plasma, im
[29] = Ratio of drug level in spleen to plasma in female Beagle dog at 200 mg/kg, sc after 3 months; format: ADME, organism-based, Canis lupus familiaris; parameters: dose 200 mg/kg, route subcutaneous
[30] = Drug level in female Beagle dog spleen at 400 mg/kg, sc after 1 month; format: ADME, organism-based, Canis lupus familiaris; parameters: dose 400 mg/kg, route subcutaneous; details: read-out: Drug uptake
[31] = Ratio of drug level in spleen to plasma in Beagle dog at 5 mg/kg, sc after 6 months; format: ADME, organism-based, Canis lupus familiaris; parameters: dose 5 mg/kg, route subcutaneous
[32] = Drug level in female Beagle dog thymus at 400 mg/kg, sc after 1 month; format: ADME, organism-based, Canis lupus familiaris; parameters: dose 400 mg/kg, route subcutaneous; details: read-out: Drug uptake
[33] = Ratio of drug level in spleen to plasma in female Beagle dog at 200 mg/kg, sc after 1 month; format: ADME, organism-based, Canis lupus familiaris; parameters: dose 200 mg/kg, route subcutaneous
[34] = AUC (0 to last) in Beagle dog at 5 mg/kg, sc after 176 days; format: ADME, organism-based, Canis lupus familiaris; parameters: time 0 - last, dose 5 mg/kg, route subcutaneous; details: plasma
[35] = test system: Canis familiaris; assay: Toxicity in Beagle dog assessed as abscess formation at 20 mg/kg administered intramuscularly after 3 months; format: organism-based, Canis lupus familiaris; parameters: dose 20 mg/kg, route intramuscular; details: in vivo, im, 2191.5 h
[36] = Plasma concentration in Beagle dog at 5 mg/kg, sc after 6 months; format: ADME, organism-based, Canis lupus familiaris; parameters: dose 5 mg/kg, route subcutaneous
[37] = Drug level in female Beagle dog spleen at 200 mg/kg administered intramuscularly after 1 month; format: ADME, organism-based, Canis lupus familiaris; parameters: dose 200 mg/kg, route intramuscular; details: im, read-out: Drug uptake
[38] = Plasma concentration in Beagle dog at 5 mg/kg, sc after 1 month; format: ADME, organism-based, Canis lupus familiaris; parameters: dose 5 mg/kg, route subcutaneous
[39] = Drug level in male Beagle dog thymus at 400 mg/kg administered intramuscularly after 3 months; format: ADME, organism-based, Canis lupus familiaris; parameters: dose 400 mg/kg, route intramuscular; details: im, read-out: Drug uptake
[40] = Ratio of drug level in spleen to plasma in male Beagle dog at 400 mg/kg administered intramuscularly after 3 months; format: ADME, organism-based, Canis lupus familiaris; parameters: dose 400 mg/kg, route intramuscular; details: im
[41] = Ratio of drug level in thymus to plasma in female Beagle dog at 400 mg/kg, sc after 3 months; format: ADME, organism-based, Canis lupus familiaris; parameters: dose 400 mg/kg, route subcutaneous
[42] = AUC (0 to last) in male dog at 400 mg administered intramuscularly after 29 days; details: plasma, im
[43] = Drug level in Beagle dog liver at 5 mg/kg administered intramuscularly after 6 months; format: ADME, organism-based, Canis lupus familiaris; parameters: dose 5 mg/kg, route intramuscular; details: im, read-out: Drug uptake
[44] = Ratio of drug level in spleen to plasma in male Beagle dog at 400 mg/kg administered intramuscularly after 1 month; format: ADME, organism-based, Canis lupus familiaris; parameters: dose 400 mg/kg, route intramuscular; details: im
[45] = Ratio of drug level in thymus to plasma in Beagle dog at 5 mg/kg, sc after 3 months; format: ADME, organism-based, Canis lupus familiaris; parameters: dose 5 mg/kg, route subcutaneous
[46] = Drug level in Beagle dog lymph node iliac at 5 mg/kg administered intramuscularly after 1 month; format: ADME, organism-based, Canis lupus familiaris; parameters: dose 5 mg/kg, route intramuscular; details: im, read-out: Drug uptake
[47] = Drug level in female Beagle dog thymus at 400 mg/kg administered intramuscularly after 3 months; format: ADME, organism-based, Canis lupus familiaris; parameters: dose 400 mg/kg, route intramuscular; details: im, read-out: Drug uptake
[48] = Drug level in Beagle dog spleen at 5 mg/kg administered intramuscularly after 6 months; format: ADME, organism-based, Canis lupus familiaris; parameters: dose 5 mg/kg, route intramuscular; details: im, read-out: Drug uptake
[49] = Drug level in Beagle dog skin at non-injected site at 5 mg/kg, sc after 3 months; format: ADME, organism-based, Canis lupus familiaris, Zone of skin; parameters: dose 5 mg/kg, route subcutaneous; details: read-out: Drug uptake
[50] = Drug level in Beagle dog thymus at 5 mg/kg, sc after 3 months; format: ADME, organism-based, Canis lupus familiaris; parameters: dose 5 mg/kg, route subcutaneous; details: read-out: Drug uptake
[51] = Drug level in male Beagle dog thymus at 200 mg/kg, sc after 3 months; format: ADME, organism-based, Canis lupus familiaris; parameters: dose 200 mg/kg, route subcutaneous; details: read-out: Drug uptake
[52] = test system: Canis familiaris; assay: Tmax in Beagle dog at 5 mg/kg, sc after 184 days; format: ADME, organism-based, Canis lupus familiaris; parameters: dose 5 mg/kg, route subcutaneous; details: in vivo, 4416 h
[53] = Tmax in female dog at 200 mg administered intramuscularly after 85 days; details: in vivo, im
[54] = Cmax in Beagle dog at 5 mg/kg, sc after 184 days; format: ADME, organism-based, Canis lupus familiaris; parameters: dose 5 mg/kg, route subcutaneous; details: in vivo
[55] = Drug level in Beagle dog lymph node axillar at 5 mg/kg administered intramuscularly after 3 months; format: ADME, organism-based, Canis lupus familiaris; parameters: dose 5 mg/kg, route intramuscular; details: axillary lymph node, im, read-out: Drug uptake
[56] = AUC (0 to last) in male dog at 200 mg, sc after 85 days; details: plasma

Compound: Cc1cc(/C=C/C#N)cc(C)c1Nc1ccnc(Nc2ccc(C#N)cc2)n1 [RILPIVIRINE]
- Cmax [1]: 31.4 ng/mL
- Kp at 4383 h [2]: 6.1
- concentration at 730.5 h [3]: 606 ng/g
- concentration at 4383 h [4]: < 5 ng/g
- Kp at 2191.5 h [5]: 2.3
- Cmax [6]: 619 ng/mL
- Cmax [7]: 119 ng/mL
- Kp at 4383 h [8]: 24
- Kp at 2191.5 h [9]: 2.3
- concentration at 2191.5 h [10]: 16.7 ng/g
- concentration at 4383 h [11]: 13.3 ng/g
- concentration at 2191.5 h [12]: < 5 ng/g
- Cmax [13]: 191 ng/mL
- AUC(0-t) at 4416 h [14]: 24400 ng·h/mL
- concentration at 2191.5 h [15]: 467 ng/g
- Kp at 2191.5 h [16]: 5.9
- concentration at 2191.5 h [17]: 26.8 ng/mL
- concentration at 2191.5 h [18]: 3.3 ng/mL
- Kp at 4383 h [19]: 7.7
- concentration at 2191.5 h [20]: 45.6 ng/g
- concentration at 4383 h [21]: 12.2 ng/g
- Kp at 2191.5 h [22]: 1.9
- Cmax [23]: 173 ng/mL
- concentration at 2191.5 h [24]: 36 ng/mL
- Kp at 2191.5 h [25]: 3.9
- concentration at 2191.5 h [26]: 46.1 ng/g
- Tmax [27]: 16 h
- AUC(0-t) at 2040 h [28]: 281000 ng·h/mL
- Kp at 2191.5 h [29]: 1.9
- concentration at 730.5 h [30]: 285 ng/g
- Kp at 4383 h [31]: 5.5
- concentration at 730.5 h [32]: 1200 ng/g
- Kp at 730.5 h [33]: 2
- AUC(0-t) at 4224 h [34]: 19700 ng·h/mL
- Activity [35]: Non-toxic
- concentration at 4383 h [36]: 1.3 ng/mL
- concentration at 730.5 h [37]: 142 ng/g
- concentration at 730.5 h [38]: 16.8 ng/mL
- concentration at 2191.5 h [39]: 76 ng/g
- Kp at 2191.5 h [40]: 2.9
- Kp at 2191.5 h [41]: 2.9
- AUC(0-t) at 696 h [42]: 188000 ng·h/mL
- concentration at 4383 h [43]: 11.6 ng/g
- Kp at 730.5 h [44]: 2.2
- Kp at 2191.5 h [45]: 13
- concentration at 730.5 h [46]: 19000 ng/g
- concentration at 2191.5 h [47]: 109 ng/g
- concentration at 4383 h [48]: < 5 ng/g
- concentration at 2191.5 h [49]: 24.2 ng/g
- concentration at 2191.5 h [50]: 43.6 ng/g
- concentration at 2191.5 h [51]: 84.2 ng/g
- Tmax [52]: 144 h
- Tmax [53]: 0.55 h
- Cmax [54]: 38 ng/mL
- concentration at 2191.5 h [55]: 25.5 ng/g
- AUC(0-t) at 2040 h [56]: 97800 ng·h/mL
